Values joined by “and” are separate entries in the source; they are usually repeats but may differ in a detail not shown here. Identical values can stand only once. Toxic doses and inconclusive results are not listed. Rule for the calls: active = survival T/C of 150% or more; inactive = T/C below 125% in these data.
System: P388 leukemia ip, CD2F1 mice, survival T/C
Assay: NCI In Vivo Anticancer Drug Screen. Data for tumor model P388 Leukemia (intraperitoneal) in CD2F1 (CDF1) mice
Conditions: endpoint: median survival time, higher = longer survival
Method: The antitumor activity of compounds was measured in mice bearing transplantable tumors. Survival or tumor size were measured and the results are expressed as the measurement made in the treated group (T) divided by the measurement made in the vehicle treated control group (C). The tumor model used in this assay is P388 Leukemia (intraperitoneal) in CD2F1 (CDF1) mice

[1] = dose: 50.0 mg/kg/injection, schedule: Q01DX009 (ip), vehicle: Klucel (hydroxypropylcellulose) (HPC)
[2] = dose: 25.0 mg/kg/injection, schedule: Q01DX009 (ip), vehicle: saline with Tween-80
[3] = dose: 50.0 mg/kg/injection, schedule: Q01DX009 (ip), vehicle: saline with Tween-80
[4] = dose: 100.0 mg/kg/injection, schedule: Q01DX009 (ip), vehicle: saline with Tween-80
[5] = dose: 50.0 mg/kg/injection, schedule: Q01DX005 (ip), vehicle: Klucel (hydroxypropylcellulose) (HPC)
[6] = dose: 100.0 mg/kg/injection, schedule: Q01DX005 (ip), vehicle: Klucel (hydroxypropylcellulose) (HPC)
[7] = dose: 200.0 mg/kg/injection, schedule: Q01DX005 (ip), vehicle: Klucel (hydroxypropylcellulose) (HPC)
[8] = dose: 100.0 mg/kg/injection, schedule: Q01DX001 (ip), vehicle: Klucel (hydroxypropylcellulose) (HPC)
[9] = dose: 200.0 mg/kg/injection, schedule: Q01DX001 (ip), vehicle: Klucel (hydroxypropylcellulose) (HPC)
[10] = dose: 400.0 mg/kg/injection, schedule: Q01DX001 (ip), vehicle: Klucel (hydroxypropylcellulose) (HPC)
[11] = dose: 100.0 mg/kg/injection, schedule: Q01DX005 (ip), vehicle: saline with Tween-80
[12] = dose: 200.0 mg/kg/injection, schedule: Q01DX005 (ip), vehicle: saline with Tween-80
[13] = dose: 60.0 mg/kg/injection, schedule: Q01DX005 (ip), vehicle: saline with Tween-80
[14] = dose: 120.0 mg/kg/injection, schedule: Q01DX005 (ip), vehicle: saline with Tween-80
[15] = dose: 12.5 mg/kg/injection, schedule: Q01DX005 (ip), vehicle: saline with Tween-80
[16] = dose: 25.0 mg/kg/injection, schedule: Q01DX005 (ip), vehicle: saline with Tween-80
[17] = dose: 50.0 mg/kg/injection, schedule: Q01DX005 (ip), vehicle: saline with Tween-80
[18] = dose: 50.0 mg/kg/injection, schedule: Q01DX009 (ip), vehicle: saline

Measured: T/C

CCN1CCC(O)(/C=C/c2ccccc2)C(C(=O)/C=C/c2ccccc2)C1 (stereo unspecified)
inactive: dose: 60.0 mg/kg/injection, schedule: Q01DX005 (ip), vehicle: Klucel (hydroxypropylcellulose) (HPC) 108 % of control | dose: 120.0 mg/kg/injection, schedule: Q01DX005 (ip), vehicle: Klucel (hydroxypropylcellulose) (HPC) 111 % of control

O=C(CI)Nc1cccc(C(=O)O)c1O
inactive: dose: 12.5 mg/kg/injection, schedule: Q01DX009 (ip), vehicle: Klucel (hydroxypropylcellulose) (HPC) 101 % of control | dose: 25.0 mg/kg/injection, schedule: Q01DX009 (ip), vehicle: Klucel (hydroxypropylcellulose) (HPC) 113 % of control | [1] 99 % of control

COc1nc(N)nc(Cl)n1
inactive: dose: 12.5 mg/kg/injection, schedule: Q01DX009 (ip), vehicle: saline with Tween-80 105 % of control | [2] 107 % of control | [3] 101 % of control | [4] 98 % of control

CN(C)C1C(=O)C(C(=O)NC[N+]23CCO[B-]2(c2ccc(Cl)cc2)OCC3)=C(O)C2(O)C(=O)C3=C(O)c4c(O)cccc4C(C)(O)C3CC12 (stereo unspecified)
inactive: dose: 25.0 mg/kg/injection, schedule: Q01DX005 (ip), vehicle: Klucel (hydroxypropylcellulose) (HPC) 111 % of control | [5] 107 % of control and 108 % of control and 110 % of control | [6] 108 % of control (2×) and 114 % of control | [7] 108 % of control and 119 % of control and 120 % of control

O=C(O)C(=O)O.[Co].[NH-]CCC[NH-].[NH-]CCC[NH-]
inactive: dose: 25.0 mg/kg/injection, schedule: Q04DX002 (ip), vehicle: saline 98 % of control

CCOC(=O)COc1cc2c(cc1C(C)c1ccc(OC)cc1)OCO2 (stereo unspecified)
inactive: [5] 104 % of control | [6] 100 % of control | [7] 94 % of control

CCCCCCCCCCCCCCCCOc1ccc2c(c1OCCCCCCCCCCCCCCCC)OC(C)(C)C=C2C
inactive: dose: 100.0 mg/kg/injection, schedule: Q04DX002 (ip), vehicle: saline with Tween-80 88 % of control | dose: 200.0 mg/kg/injection, schedule: Q04DX002 (ip), vehicle: saline with Tween-80 86 % of control

O=C1C(O)=C(O)C(=O)c2ccccc21
inactive: [1] 90 % of control

CC(=O)OC1=CC(OC(C)=O)C2C(=O)C3=C(C(=O)c4ccccc4C3=O)C(=O)C2C1 (stereo unspecified)
inactive: [8] 105 % of control | [9] 102 % of control | [10] 93 % of control

C[c-]1[c-][c-][c-][c-]1.C[c-]1[c-][c-][c-][c-]1.[C-]#[O+].[C-]#[O+].[C-]#[O+].[C-]#[O+].[C-]#[O+].[C-]#[O+].[Mo].[Mo]
inactive: [11] 98 % of control | [12] 93 % of control

CCN(C)c1cc(=O)c2ccc3ccccc3c2o1
inactive: [3] 101 % of control | [4] 105 % of control

CCCCCCC(=O)/C=c1\c(CC(=O)CCCCCC)nc2nnc(N)n12
inactive: [13] 96 % of control | [14] 100 % of control | dose: 240.0 mg/kg/injection, schedule: Q01DX005 (ip), vehicle: saline with Tween-80 88 % of control

Nc1cc2nnc(-c3ccccc3)c(-c3ccccc3)n2n1
inactive: dose: 25.0 mg/kg/injection, schedule: Q04DX002 (ip), vehicle: saline with Tween-80 91 % of control | dose: 50.0 mg/kg/injection, schedule: Q04DX002 (ip), vehicle: saline with Tween-80 86 % of control

CC1OC(c2ccc3c(c2O)C(=O)c2ccc(CC(C)(O)CC(=O)O)cc2C3=O)CC(O)C1O (stereo unspecified)
inactive: [15] 90 % of control | [16] 93 % of control | [17] 96 % of control | dose: 100.0 mg/kg/injection, schedule: Q01DX005 (ip), vehicle: suspension in saline 110 % of control | dose: 200.0 mg/kg/injection, schedule: Q01DX005 (ip), vehicle: suspension in saline 101 % of control

O=[N+]([O-])c1cccc(N2CN(c3ccccc3)NC(c3ccccc3)=N2)c1
inactive: dose: 50.0 mg/kg/injection, schedule: Q04DX003 (ip), vehicle: saline with Tween-80 90 % of control | dose: 200.0 mg/kg/injection, schedule: Q04DX003 (ip), vehicle: saline with Tween-80 107 % of control

CCC(C)N(CC)CCNc1cc(OC)cc2cccnc12 (stereo unspecified)
inactive: dose: 50.0 mg/kg/injection, schedule: Q01DX005 (ip), vehicle: saline 103 % of control | dose: 100.0 mg/kg/injection, schedule: Q01DX005 (ip), vehicle: saline 99 % of control

CCN=NNc1ccc(C)cc1
inactive: [2] 110 % of control

CN(C)/C=C(/N=C(C#N)C#N)C1OCCO1
inactive: [15] 100 % of control | [16] 112 % of control | [17] 117 % of control

C1CCC(N=C(NC2CCCCC2)N2CCOCC2)CC1
inactive: dose: 6.25 mg/kg/injection, schedule: Q01DX009 (ip), vehicle: saline 99 % of control | dose: 12.5 mg/kg/injection, schedule: Q01DX009 (ip), vehicle: saline 99 % of control | dose: 25.0 mg/kg/injection, schedule: Q01DX009 (ip), vehicle: saline 100 % of control | [18] 89 % of control

COC(=O)C(CC(C)C)NC(=O)C(Cc1ccc(O)cc1)N(C(=O)OCc1ccccc1)C(=O)OCc1ccccc1 (stereo unspecified)
inactive: [17] 103 % of control | [11] 94 % of control | [12] 92 % of control

NCCn1[nH]c(=O)c2ncccc2c1=O
inactive: [13] 108 % of control | [14] 105 % of control

CC[C@@H]1C[C@@H]2CN3CCc4c([nH]c5ccc(OC)cc45)C(COC(=O)c4ccc(OC)c(OC)c4)(C2)C13
inactive: dose: 0.5 mg/kg/injection, schedule: Q01DX009 (ip), vehicle: Klucel (hydroxypropylcellulose) (HPC) 102 % of control | dose: 1.0 mg/kg/injection, schedule: Q01DX009 (ip), vehicle: Klucel (hydroxypropylcellulose) (HPC) 104 % of control | dose: 2.0 mg/kg/injection, schedule: Q01DX009 (ip), vehicle: Klucel (hydroxypropylcellulose) (HPC) 108 % of control | dose: 4.0 mg/kg/injection, schedule: Q01DX009 (ip), vehicle: Klucel (hydroxypropylcellulose) (HPC) 102 % of control

CSc1c(Cl)cc(Cl)cc1C(=O)O
inactive: dose: 16.5 mg/kg/injection, schedule: Q01DX009 (ip), vehicle: saline with Tween-80 100 % of control and 110 % of control | [2] 105 % of control and 106 % of control | dose: 37.5 mg/kg/injection, schedule: Q01DX009 (ip), vehicle: saline with Tween-80 117 % of control and 97 % of control | dose: 50.0 mg/kg/injection, schedule: Q01DX009 (ip), vehicle: saline + alcohol 112 % of control | dose: 100.0 mg/kg/injection, schedule: Q01DX009 (ip), vehicle: saline + alcohol 110 % of control | dose: 200.0 mg/kg/injection, schedule: Q01DX009 (ip), vehicle: saline + alcohol 112 % of control

CC(SCc1ccccc1)C(N)C(=O)O (stereo unspecified)
inactive: [3] 100 % of control | [4] 103 % of control | dose: 200.0 mg/kg/injection, schedule: Q01DX009 (ip), vehicle: saline with Tween-80 91 % of control

CN(C)CCSc1cc(O)c2c(c1O)C(=O)c1ccccc1C2=O
inactive: dose: 12.5 mg/kg/injection, schedule: Q04DX003 (ip), vehicle: water 107 % of control | dose: 25.0 mg/kg/injection, schedule: Q01DX009 (ip), vehicle: water 102 % of control | dose: 25.0 mg/kg/injection, schedule: Q04DX003 (ip), vehicle: water 98 % of control | dose: 50.0 mg/kg/injection, schedule: Q01DX009 (ip), vehicle: water 103 % of control | dose: 50.0 mg/kg/injection, schedule: Q04DX003 (ip), vehicle: water 102 % of control | dose: 100.0 mg/kg/injection, schedule: Q01DX009 (ip), vehicle: water 102 % of control | dose: 100.0 mg/kg/injection, schedule: Q04DX003 (ip), vehicle: water 102 % of control | dose: 200.0 mg/kg/injection, schedule: Q01DX009 (ip), vehicle: water 97 % of control | dose: 200.0 mg/kg/injection, schedule: Q04DX003 (ip), vehicle: water 118 % of control

O=S(=O)(CC(O)C(Cl)(Cl)Cl)NNc1ccccc1 (stereo unspecified)
inactive: [18] 99 % of control | dose: 100.0 mg/kg/injection, schedule: Q01DX009 (ip), vehicle: saline 112 % of control

CN1N=Nc2ccccc2C1(O)c1ccccc1 (stereo unspecified)
inactive: [8] 98 % of control | [9] 98 % of control | [10] 102 % of control

Source: PubChem BioAssay AID330 (DTP/NCI, 2004)
